Laboratory results from patent US6689773B2, “Uracil substituted phenyl sulfamoyl carboxamides” (BASF Aktiengesellschaft, priority 2000, dated 2004).

Experiments:
Format in all cases: in vivo
[1] = test system: ABUTH, Velvetleaf, Abutilon theophrasti, Medic.; assay: Postemergence herbicidal evaluation (Example 147); settings: rating scale 0-9, two to three weeks after treatment
Summary of the method: (§1)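 Visual 0-9 rating against an untreated control, scored roughly two to three weeks after a postemergence spray of two-week-old seedlings. Dose equivalent about 0.016 to 0.032 kg/ha, delivered in 80/20 acetone/water with 1.0% SUN-IT II at 40 psi.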

[2] = test system: ALOMY, Blackgrass, Alopecurus myosuroides; assay: Postemergence herbicidal evaluation (Example 147); settings: rating scale 0-9, two to three weeks after treatment
Summary of the method: as §1

[3] = test system: AMBEL, Ragweed, Common, Ambrosia artemiisifolia, L.; assay: Postemergence herbicidal evaluation (Example 147); settings: rating scale 0-9, two to three weeks after treatment
Summary of the method: as §1

[4] = test system: CHEAL, Lambsquarters, Chenopodium album, L. Common; assay: Postemergence herbicidal evaluation (Example 147); settings: rating scale 0-9, two to three weeks after treatment
Summary of the method: as §1

[5] = test system: DIGSA, Crabgrass, (Hairy) L, Digitaria sanguinalis, (L)Scop; assay: Postemergence herbicidal evaluation (Example 147); settings: rating scale 0-9, two to three weeks after treatment
Summary of the method: as §1

[6] = test system: ECHCG, Barnyardgrass, Echinochloa crusgalli, (L.)Beau; assay: Postemergence herbicidal evaluation (Example 147); settings: rating scale 0-9, two to three weeks after treatment
Summary of the method: as §1

[7] = test system: GLXMA, Soybean, Glycine max, (L.) Merr.; assay: Postemergence herbicidal evaluation (Example 147); settings: rating scale 0-9, two to three weeks after treatment
Summary of the method: as §1

[8] = test system: IPOHE, Morningglory, Ivyleaf, Ipomoea hederacea, (L)Jacq.; assay: Postemergence herbicidal evaluation (Example 147); settings: rating scale 0-9, two to three weeks after treatment
Summary of the method: as §1

[9] = test system: SETVI, Green foxtail, Setaria viridis, (L.)Beau; assay: Postemergence herbicidal evaluation (Example 147); settings: rating scale 0-9, two to three weeks after treatment
Summary of the method: as §1

[10] = test system: TRZAW, Winter wheat, Tritium Aestivum, L. (Winter); assay: Postemergence herbicidal evaluation (Example 147); settings: rating scale 0-9, two to three weeks after treatment
Summary of the method: as §1

[11] = test system: XANST, Cocklebur, Xanthium strumariam; assay: Postemergence herbicidal evaluation (Example 147); settings: rating scale 0-9, two to three weeks after treatment
Summary of the method: as §1

[12] = test system: ZEAMX, Field corn, Zea mays L.; assay: Postemergence herbicidal evaluation (Example 147); settings: rating scale 0-9, two to three weeks after treatment
Summary of the method: as §1

[13] = test system: ABUTH, Velvetleaf, Abutilon theophrasti, Medic.; assay: Preemergence herbicidal evaluation (Example 148); settings: rating scale 0-9, two to four weeks after treatment
Summary of the method: (§2)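 Following sowing, cups received a soil spray of the compound dissolved in aqueous acetone, dosed to about 0.125 to 0.250 kg per hectare. Growth continued in the greenhouse under routine care before visual scoring at two to four weeks.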

[14] = test system: ALOMY, Blackgrass, Alopecurus myosuroides; assay: Preemergence herbicidal evaluation (Example 148); settings: rating scale 0-9, two to four weeks after treatment
Summary of the method: as §2

[15] = test system: AMBEL, Ragweed, Common, Ambrosia artemiisifolia, L.; assay: Preemergence herbicidal evaluation (Example 148); settings: rating scale 0-9, two to four weeks after treatment
Summary of the method: as §2

[16] = test system: CHEAL, Lambsquarters, Chenopodium album, L. Common; assay: Preemergence herbicidal evaluation (Example 148); settings: rating scale 0-9, two to four weeks after treatment
Summary of the method: as §2

[17] = test system: DIGSA, Crabgrass, (Hairy) L, Digitaria sanguinalis, (L)Scop; assay: Preemergence herbicidal evaluation (Example 148); settings: rating scale 0-9, two to four weeks after treatment
Summary of the method: as §2

[18] = test system: ECHCG, Barnyardgrass, Echinochloa crusgalli, (L.)Beau; assay: Preemergence herbicidal evaluation (Example 148); settings: rating scale 0-9, two to four weeks after treatment
Summary of the method: as §2

[19] = test system: GLXMA, Soybean, Glycine max, (L.) Merr.; assay: Preemergence herbicidal evaluation (Example 148); settings: rating scale 0-9, two to four weeks after treatment
Summary of the method: as §2

[20] = test system: IPOHE, Morningglory, Ivyleaf, Ipomoea hederacea, (L)Jacq.; assay: Preemergence herbicidal evaluation (Example 148); settings: rating scale 0-9, two to four weeks after treatment
Summary of the method: as §2

[21] = test system: SETVI, Green foxtail, Setaria viridis, (L.)Beau; assay: Preemergence herbicidal evaluation (Example 148); settings: rating scale 0-9, two to four weeks after treatment
Summary of the method: as §2

[22] = test system: TRZAW, Winter wheat, Tritium Aestivum, L. (Winter); assay: Preemergence herbicidal evaluation (Example 148); settings: rating scale 0-9, two to four weeks after treatment
Summary of the method: as §2

[23] = test system: XANST, Cocklebur, Xanthium strumariam; assay: Preemergence herbicidal evaluation (Example 148); settings: rating scale 0-9, two to four weeks after treatment
Summary of the method: as §2

[24] = test system: ZEAMX, Field corn, Zea mays L.; assay: Preemergence herbicidal evaluation (Example 148); settings: rating scale 0-9, two to four weeks after treatment
Summary of the method: as §2

Structure (SMILES): CCCCN(C)S(=O)(=O)NC(=O)c1cc(-n2c(=O)cc(C(F)(F)F)n(C)c2=O)c(F)cc1Cl [Example 83]
- Postemergence herbicidal rating ABUTH ([1]; rate 0.016 kg/ha): 9.0
- Postemergence herbicidal rating ABUTH ([1]; rate 0.032 kg/ha): 9.0
- Postemergence herbicidal rating ALMOY ([2]; rate 0.016 kg/ha): 0.0
- Postemergence herbicidal rating ALMOY ([2]; rate 0.032 kg/ha): 1.0
- Postemergence herbicidal rating AMBEL ([3]; rate 0.016 kg/ha): 6.0
- Postemergence herbicidal rating AMBEL ([3]; rate 0.032 kg/ha): 8.0
- Postemergence herbicidal rating CHEAL ([4]; rate 0.016 kg/ha): 5.0
- Postemergence herbicidal rating CHEAL ([4]; rate 0.032 kg/ha): 5.0
- Postemergence herbicidal rating DIGSA ([5]; rate 0.016 kg/ha): 3.0
- Postemergence herbicidal rating DIGSA ([5]; rate 0.032 kg/ha): 4.0
- Postemergence herbicidal rating ECHCG ([6]; rate 0.016 kg/ha): 8.0
- Postemergence herbicidal rating ECHCG ([6]; rate 0.032 kg/ha): 8.0
- Postemergence herbicidal rating GLXMA ([7]; rate 0.016 kg/ha): 7.0
- Postemergence herbicidal rating GLXMA ([7]; rate 0.032 kg/ha): 7.5
- Postemergence herbicidal rating IPOHE ([8]; rate 0.016 kg/ha): 8.0
- Postemergence herbicidal rating IPOHE ([8]; rate 0.032 kg/ha): 9.0
- Postemergence herbicidal rating SETVI ([9]; rate 0.016 kg/ha): 7.0
- Postemergence herbicidal rating SETVI ([9]; rate 0.032 kg/ha): 8.0
- Postemergence herbicidal rating TRZAW ([10]; rate 0.016 kg/ha): 4.5
- Postemergence herbicidal rating TRZAW ([10]; rate 0.032 kg/ha): 5.5
- Postemergence herbicidal rating XANST ([11]; rate 0.016 kg/ha): 9.0
- Postemergence herbicidal rating XANST ([11]; rate 0.032 kg/ha): 9.0
- Postemergence herbicidal rating ZEAMX ([12]; rate 0.016 kg/ha): 5.5
- Postemergence herbicidal rating ZEAMX ([12]; rate 0.032 kg/ha): 6.0
- Preemergence herbicidal rating ABUTH ([13]; rate 0.125 kg/ha): 8.0
- Preemergence herbicidal rating ABUTH ([13]; rate 0.25 kg/ha): 9.0
- Preemergence herbicidal rating ALMOY ([14]; rate 0.125 kg/ha): 0.0
- Preemergence herbicidal rating ALMOY ([14]; rate 0.25 kg/ha): 0.0
- Preemergence herbicidal rating AMBEL ([15]; rate 0.125 kg/ha): 8.0
- Preemergence herbicidal rating AMBEL ([15]; rate 0.25 kg/ha): 8.0
- Preemergence herbicidal rating CHEAL ([16]; rate 0.125 kg/ha): 9.0
- Preemergence herbicidal rating CHEAL ([16]; rate 0.25 kg/ha): 9.0
- Preemergence herbicidal rating DIGSA ([17]; rate 0.125 kg/ha): 1.0
- Preemergence herbicidal rating DIGSA ([17]; rate 0.25 kg/ha): 9.0
- Preemergence herbicidal rating ECHCG ([18]; rate 0.125 kg/ha): 4.0
- Preemergence herbicidal rating ECHCG ([18]; rate 0.25 kg/ha): 5.0
- Preemergence herbicidal rating GLXMA ([19]; rate 0.125 kg/ha): 1.0
- Preemergence herbicidal rating GLXMA ([19]; rate 0.25 kg/ha): 4.0
- Preemergence herbicidal rating IPOHE ([20]; rate 0.125 kg/ha): 7.0
- Preemergence herbicidal rating IPOHE ([20]; rate 0.25 kg/ha): 8.0
- Preemergence herbicidal rating SETVI ([21]; rate 0.125 kg/ha): 3.0
- Preemergence herbicidal rating SETVI ([21]; rate 0.25 kg/ha): 6.0
- Preemergence herbicidal rating TRZAW ([22]; rate 0.125 kg/ha): 0.0
- Preemergence herbicidal rating TRZAW ([22]; rate 0.25 kg/ha): 0.0
- Preemergence herbicidal rating XANST ([23]; rate 0.125 kg/ha): 4.0
- Preemergence herbicidal rating XANST ([23]; rate 0.25 kg/ha): 5.0
- Preemergence herbicidal rating ZEAMX ([24]; rate 0.125 kg/ha): 0.0
- Preemergence herbicidal rating ZEAMX ([24]; rate 0.25 kg/ha): 2.0

Structure (SMILES): CCC(C)N(C)S(=O)(=O)NC(=O)c1cc(-n2c(=O)cc(C(F)(F)F)n(C)c2=O)c(F)cc1Cl (stereo not drawn) [Example 69]
- Postemergence herbicidal rating ABUTH ([1]; rate 0.016 kg/ha): 9.0
- Postemergence herbicidal rating ABUTH ([1]; rate 0.032 kg/ha): 9.0
- Postemergence herbicidal rating ALMOY ([2]; rate 0.016 kg/ha): 1.0
- Postemergence herbicidal rating ALMOY ([2]; rate 0.032 kg/ha): 2.0
- Postemergence herbicidal rating AMBEL ([3]; rate 0.016 kg/ha): 9.0
- Postemergence herbicidal rating AMBEL ([3]; rate 0.032 kg/ha): 9.0
- Postemergence herbicidal rating CHEAL ([4]; rate 0.016 kg/ha): 8.0
- Postemergence herbicidal rating CHEAL ([4]; rate 0.032 kg/ha): 8.0
- Postemergence herbicidal rating DIGSA ([5]; rate 0.016 kg/ha): 4.0
- Postemergence herbicidal rating DIGSA ([5]; rate 0.032 kg/ha): 6.0
- Postemergence herbicidal rating ECHCG ([6]; rate 0.016 kg/ha): 5.0
- Postemergence herbicidal rating ECHCG ([6]; rate 0.032 kg/ha): 7.0
- Postemergence herbicidal rating GLXMA ([7]; rate 0.016 kg/ha): 8.0
- Postemergence herbicidal rating GLXMA ([7]; rate 0.032 kg/ha): 8.0
- Postemergence herbicidal rating IPOHE ([8]; rate 0.016 kg/ha): 9.0
- Postemergence herbicidal rating IPOHE ([8]; rate 0.032 kg/ha): 9.0
- Postemergence herbicidal rating SETVI ([9]; rate 0.016 kg/ha): 5.0
- Postemergence herbicidal rating SETVI ([9]; rate 0.032 kg/ha): 6.0
- Postemergence herbicidal rating TRZAW ([10]; rate 0.016 kg/ha): 5.0
- Postemergence herbicidal rating TRZAW ([10]; rate 0.032 kg/ha): 6.5
- Postemergence herbicidal rating XANST ([11]; rate 0.016 kg/ha): 9.0
- Postemergence herbicidal rating XANST ([11]; rate 0.032 kg/ha): 9.0
- Postemergence herbicidal rating ZEAMX ([12]; rate 0.016 kg/ha): 7.0
- Postemergence herbicidal rating ZEAMX ([12]; rate 0.032 kg/ha): 7.5
- Preemergence herbicidal rating ABUTH ([13]; rate 0.125 kg/ha): 9.0
- Preemergence herbicidal rating ABUTH ([13]; rate 0.25 kg/ha): 9.0
- Preemergence herbicidal rating ALMOY ([14]; rate 0.125 kg/ha): 0.0
- Preemergence herbicidal rating ALMOY ([14]; rate 0.25 kg/ha): 0.0
- Preemergence herbicidal rating AMBEL ([15]; rate 0.125 kg/ha): 8.0
- Preemergence herbicidal rating AMBEL ([15]; rate 0.25 kg/ha): 9.0
- Preemergence herbicidal rating CHEAL ([16]; rate 0.125 kg/ha): 9.0
- Preemergence herbicidal rating CHEAL ([16]; rate 0.25 kg/ha): 9.0
- Preemergence herbicidal rating DIGSA ([17]; rate 0.125 kg/ha): 3.0
- Preemergence herbicidal rating DIGSA ([17]; rate 0.25 kg/ha): 3.0
- Preemergence herbicidal rating ECHCG ([18]; rate 0.125 kg/ha): 2.0
- Preemergence herbicidal rating ECHCG ([18]; rate 0.25 kg/ha): 3.0
- Preemergence herbicidal rating GLXMA ([19]; rate 0.125 kg/ha): 0.0
- Preemergence herbicidal rating GLXMA ([19]; rate 0.25 kg/ha): 3.0
- Preemergence herbicidal rating IPOHE ([20]; rate 0.125 kg/ha): 9.0
- Preemergence herbicidal rating IPOHE ([20]; rate 0.25 kg/ha): 9.0
- Preemergence herbicidal rating SETVI ([21]; rate 0.125 kg/ha): 0.0
- Preemergence herbicidal rating SETVI ([21]; rate 0.25 kg/ha): 1.0
- Preemergence herbicidal rating TRZAW ([22]; rate 0.125 kg/ha): 0.0
- Preemergence herbicidal rating TRZAW ([22]; rate 0.25 kg/ha): 0.0
- Preemergence herbicidal rating XANST ([23]; rate 0.125 kg/ha): 3.0
- Preemergence herbicidal rating XANST ([23]; rate 0.25 kg/ha): 4.0
- Preemergence herbicidal rating ZEAMX ([24]; rate 0.125 kg/ha): 2.0
- Preemergence herbicidal rating ZEAMX ([24]; rate 0.25 kg/ha): 3.0
